Measurements published in the NIST ThermoML archive (doi:10.1016/j.jct.2015.08.035).
Numbers after ± are expanded uncertainties.

What was measured:
[1] = Crystal; DTA
[2] = Molar enthalpy of transition or fusion; details: Crystal; DSC

Normal melting temperature [1]: 82.07 ± 1.1 °C | Molar enthalpy of transition or fusion [2]: 4.47 ± 0.263 kcal/mol
Compound: CC1=C(O)C(=O)C(C)O1 (configuration not stated) [4-hydroxy-2,5-dimethyl-3(2H)-furanone]
